# Source: patent US4001280A, “Chromone derivatives” (Fujisawa Pharmaceutical Co., Ltd., priority 1972, dated 1977)
# Test system: Hyperimmune antiserum
# Test: Anti-allergic test in sensitized rats: percent inhibition of skin dye leakage (blue spot) for hyperimmune antiserum
# Assay type: in vivo, Sprague-Dawley JCL strain rats
# Conditions: p.o.
# Procedure: Five male Sprague-Dawley JCL strain rates weighing 290-310g. were used for each dose. The animals were sensitized by intracutaneous injection of 0.1ml. of 5 times diluted reagin-like rat antiserum at 48 hours before egg albumin at their depilated backs and were injected 0.1ml. of 4 times diluted hyperimmune rat antiserum at 4 hours before. One ml. of mixture of egg albumin 5 mg. and Evans blue 5 mg. was injected intravenously. Immediately before 0.1ml. of 0.2% histamine solution was injected intracutaneously.
# One hour after the injection of the antigen and dye, animals were sacrificed and the skin of the back was removed. The dye of blue spot was then extracted from the skin. The blue spot areas of the skin were punched out and were cut with clipper into small pieces. The small pieces per one blue spot were blended with 10 ml. of a 4:1 mixture of acetone and 2% solution of RBS-25 (Marumoto industrial Co., Ltd.) and rested for 16 hours. Five and 16 hours after, it was shaked for 30 minutes respectively. After centrifugation at 2000 rpm for 15 minutes, the optical density of the supernatant was determined at 620 mμ.
# […] The mean amount of dye of the test animals was compared with that of the control animals. The percent inhibition for each dose was calculated.
smiles,measurement,setting,value
CN1CCN(C(=O)c2cc(=O)c3c(OCCOc4ccccc4)cccc3o2)CC1,inhibition % for Hyperimmune antiserum,"pretreatment 30 min., dose 125 mg./kg.",48.2%
same,inhibition % for Hyperimmune antiserum,"pretreatment 30 min., dose 250 mg./kg.",66.7%
same,inhibition % for Hyperimmune antiserum,"pretreatment 60 min., dose 250 mg./kg.",45.8%
same,inhibition % for Hyperimmune antiserum,"pretreatment 60 min., dose 500 mg./kg.",46.5%
same,inhibition % for Hyperimmune antiserum,"pretreatment 120 min., dose 125 mg./kg.",37.6%
same,inhibition % for Hyperimmune antiserum,"pretreatment 120 min., dose 250 mg./kg.",40.6%
same,inhibition % for Hyperimmune antiserum,"pretreatment 120 min., dose 500 mg./kg.",67.7%
